Bounds are passed on as bounds.

Usually IC50 stands for the concentration that gives 50% inhibition.

The target in this experiment is T1, human TRPM8 (Homo sapiens, UniProt Q7Z2W7).
T1 construct: expressed in transfected cells; host or cells: HEK293
T1 sequence (Q7Z2W7 whole entry): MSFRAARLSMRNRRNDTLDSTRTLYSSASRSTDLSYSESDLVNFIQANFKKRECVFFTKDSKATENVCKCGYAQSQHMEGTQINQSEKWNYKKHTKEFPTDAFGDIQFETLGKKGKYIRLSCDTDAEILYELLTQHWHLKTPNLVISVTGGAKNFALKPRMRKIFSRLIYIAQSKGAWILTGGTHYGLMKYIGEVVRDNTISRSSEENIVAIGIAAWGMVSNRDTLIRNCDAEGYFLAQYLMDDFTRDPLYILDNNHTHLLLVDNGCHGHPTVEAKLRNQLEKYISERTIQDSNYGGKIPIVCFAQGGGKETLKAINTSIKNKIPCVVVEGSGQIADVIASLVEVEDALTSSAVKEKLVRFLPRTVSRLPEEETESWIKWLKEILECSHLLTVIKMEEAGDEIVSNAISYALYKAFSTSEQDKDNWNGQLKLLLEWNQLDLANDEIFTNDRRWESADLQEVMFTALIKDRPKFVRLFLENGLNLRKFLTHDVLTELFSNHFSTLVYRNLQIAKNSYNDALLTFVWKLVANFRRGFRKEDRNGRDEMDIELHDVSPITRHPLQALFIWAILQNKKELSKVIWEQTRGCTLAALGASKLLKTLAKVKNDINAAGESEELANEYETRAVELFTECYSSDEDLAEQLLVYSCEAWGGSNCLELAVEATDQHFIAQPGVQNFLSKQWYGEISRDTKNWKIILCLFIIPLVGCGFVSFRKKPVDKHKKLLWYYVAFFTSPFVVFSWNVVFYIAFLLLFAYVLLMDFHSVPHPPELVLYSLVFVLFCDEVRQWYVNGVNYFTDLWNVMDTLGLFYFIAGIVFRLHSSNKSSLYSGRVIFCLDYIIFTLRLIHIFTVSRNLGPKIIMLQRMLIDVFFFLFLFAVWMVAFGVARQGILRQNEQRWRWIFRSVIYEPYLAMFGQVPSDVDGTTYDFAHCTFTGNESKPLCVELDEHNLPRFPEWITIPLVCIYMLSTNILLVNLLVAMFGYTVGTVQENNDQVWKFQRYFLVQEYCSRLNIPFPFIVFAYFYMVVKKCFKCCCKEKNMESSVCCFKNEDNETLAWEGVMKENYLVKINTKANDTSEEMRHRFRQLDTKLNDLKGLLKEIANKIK
In words: Menthol-induced Ca2+ influx in HEK293 cells stably expressing human TRPM8. The experiment is classed as cell-based. The conditions noted are these: 30 microM menthol-induced Ca2+ influx, read-out: IC50 against TRPM8. As for the experimental part: Measurement of the Menthol-Induced Ca^2+ Influx in HEK293 Cells Stably Expressing Human TRPM8
A cell-based Ca^2+ influx assay using HEK293 cells stably expressing human TRPM8 is used to identify the activity of compounds.
HEK293 cells stably expressing human TRPM8 are grown in T175 flasks at 37° C. in a 5% CO2 humidified incubator to about 80% confluence. Media composition consists of Dulbecco's Modified Eagle Medium (high glucose), 10% fetal calf serum (FCS), 100 units/mLPenicillin, 100 microg/mL Streptomycin and 600 microg/mL Geneticine. At 24 hours prior to assay, cells are seeded in poly-D-lysine coated 384-well plates (BD FALCON) at a density of 30,000 cells per well in culture medium and grown overnight in 5% CO2 at 37° C. On the assay day, growth media is removed and cells are loaded with 0.5 microM Fluo4-AM (Molecular Probes) and 0.005% Pluronic F-127 dissolved in assay buffer (Hank's balanced salt solution (HBSS), 19.4 mM HEPES pH7.4, 2.5 mM Probenecid) for 1 hour at room temperature. After washing with assay buffer, the cells are preincubated with various concentrations of the compounds for 5 min. The changes in intracellular calcium concentration by addition of 30 microM menthol are monitored by the cell imaging technology by Hamamatsu Photonics Functional Drug Screening System (FDSS).
The IC50 values for compounds of the present invention are determined from 11-point dose-response studies. Curves are generated using the average of duplicate wells for each data point. Finally, the IC50 values are calculated with the best-fit dose curve determined by XLfit (ID Business Solutions Ltd.).
Turning to `O=C(CN1C(=O)NC2(CCC(F)(F)CC2)C1=O)c1ccc(-c2ncnc3[nH]ncc23)cc1` [Example 6-23], the half-maximal inhibitory concentration (IC50) is under 100 nM.
Take `O=C1Cc2c(-c3ccc(C(=O)CN4C(=O)NC5(CCC(F)(F)CC5)C4=O)cc3)ccnc2N1` [Example 6-42]: the IC50 was under 500 nM.
With `O=C(CN1CC2(CCC(F)(F)CC2)OC1=O)c1ccc(-c2cnccc2CO)cc1` [Example 7-16], the IC50 is under 500 nM.
With `Cc1cc(C(=O)CN2C(=O)NC3(CCC(F)(F)CC3)C2=O)n(C)c1-c1cccc(C(N)=O)c1` [Example 16-6], the IC50 was under 100 nM.
For the compound `Cc1cc(C(=O)CN2C(=O)NC3(CCC(F)(F)CC3)C2=O)sc1-c1cccc(C(N)=O)c1` [Example 14-18], the IC50 is under 500 nM.
The figure for `O=C(CN1C(=O)NC2(CCC(F)(F)CC2)C1=O)c1ccc(Oc2ncccn2)cc1` [Example 5-20] is under 100 nM; for `N#Cc1cccnc1-c1ccc(C(=O)CN2C(=O)NC3(CCC(F)(F)CC3)C2=O)cc1` [Example 6-87] it is under 100 nM; for `O=C(CN1C(=O)NC2(CCC(F)(F)CC2)C1=O)c1ccc(-c2ccccc2O)cc1` [Example 6-19] it is under 100 nM.
Take `COc1nc2cccnc2n1-c1ccc(C(=O)CN2C(=O)NC3(CCC(F)(F)CC3)C2=O)cc1` [Example 26-1, 8,8-difluoro-3-(2-(4-(2-methoxy-3H-imidazo[4,5-b]pyridin-3-yl)phenyl)-2-oxoethyl)-1,3-diazaspiro[4.5]decane-2,4-dione]: the IC50 was under 10 nM.
`O=C(CN1C(=O)NC2(CCC(F)(F)CC2)C1=O)c1ccc(Oc2cccc(Cl)c2)nc1` [Example 20-8]: the IC50 is under 100 nM.
On to `Cc1cc(C(=O)CN2C(=O)NC3(CCC(F)(F)CC3)C2=O)sc1-c1cccc(C#N)c1` [Example 14-10], for which the IC50 is under 100 nM.
`O=C(CN1C(=O)NC2(CCC(F)(F)CC2)C1=O)c1ccc(Oc2ccccc2)nc1` [Example 5-23]: the IC50 is under 500 nM.
Turning to `O=C(CN1C(=O)NC2(CCC(F)(F)CC2)C1=O)c1ccc(Oc2ccccn2)nc1` [Example 20-6], the IC50 is under 100 nM.
With `O=C(CN1C(=O)NC2(CCC(F)(F)CC2)C1=O)c1ccc(-c2ncnc3ccccc23)cc1` [Example 6-2], the IC50 was under 10 nM.
The figure for `Nc1ncccc1-c1ccc(C(=O)CN2C(=O)NC3(CCCCC3)C2=O)cc1` [Example 7-13] is under 100 nM; for `COCc1ccccc1-c1ccc(C(=O)CN2C(=O)NC3(CCC(F)(F)CC3)C2=O)cc1` [Example 6-114] it is under 100 nM.
On to `Cc1cc(C(=O)CN2C(=O)NC3(CCCCC3)C2=O)c(C)n1-c1cccc(N2CCCC(O)C2)n1` (stereo not shown) [Example 3-29, 3-(2-(1-(6-(3-hydroxypiperidin-1-yl)pyridin-2-yl)-2,5-dimethyl-1H-pyrrol-3-yl)-2-oxoethyl)-1,3-diazaspiro[4.5]decane-2,4-dione], for which the IC50 is under 500 nM.
With `N#Cc1nccnc1-c1ccc(C(=O)CN2C(=O)NC3(CCC(F)(F)CC3)C2=O)cc1` [Example 6-3], the IC50 is under 10 nM.
In the case of `O=C(CN1C(=O)NC2(CCC(F)(F)CC2)C1=O)c1ccc(Oc2cccnc2)c(F)c1` [Example 21-17], the IC50 is under 100 nM.
The figure for `Cn1c(-c2cccc3ccncc23)cnc1C(=O)CN1C(=O)NC2(CCC(F)(F)CC2)C1=O` [Example 17-2] is under 100 nM.
The result for `Cc1cncc(-n2c(C)cc(C(=O)CN3C(=O)NC4(CCCCC4)C3=O)c2C)c1` [Example 3-11] reads under 100 nM; that for `O=C(CN1C(=O)NC2(CCC(F)(F)CC2)C1=O)c1cnc(-n2cnc3ccccc32)cn1` [Example 19-24], under 100 nM; that for `Cn1c(-c2ccccc2)cnc1C(=O)CN1C(=O)NC2(CCC(F)(F)CC2)C1=O` [Example 4-4], under 100 nM.
Consider `O=C(CN1C(=O)NC2(CCC(F)(F)CC2)C1=O)c1ccc(Oc2nccs2)cc1` [Example 21-13, 8,8-difluoro-3-(2-oxo-2-(4-(thiazol-2-yloxy)phenyl)ethyl)-1,3-diazaspiro[4.5]decane-2,4-dione], for which the half-maximal inhibitory concentration (IC50) was under 100 nM.
Take `Cc1ccc2nc(C)n(-c3ccc(C(=O)CN4CC5(CCC(F)(F)CC5)OC4=O)cc3)c2n1` [Example 22-6]: the IC50 is under 500 nM.
As to `Cc1cc(C(=O)CN2C(=O)NC3(CCC(F)(F)CC3)C2=O)c(C)n1-c1ccccn1` [Example 3-12], the IC50 is under 100 nM.
The result for `Cc1ccccc1-c1cnc(C(=O)CN2C(=O)NC3(CCC(F)(F)CC3)C2=O)cn1` [Example 12-2] reads under 100 nM.
Take `Cn1c(-c2cccnc2)cnc1C(=O)CN1C(=O)NC2(CCC(F)(F)CC2)C1=O` [Example 17-15]: the concentration for half-maximal inhibition (IC50) was under 500 nM.
In the case of `O=C(CN1C(=O)NC2(CCC(F)(F)CC2)C1=O)c1ccc(-c2cccc3[nH]ccc23)cc1` [Example 13-42], the IC50 is under 100 nM.
In the case of `Cc1nc(C(=O)CN2C(=O)NC3(CCC(F)(F)CC3)C2=O)n(C)c1-c1cc(F)cc(F)c1` [Example 17-11], the IC50 is under 100 nM.
In the case of `O=C(CN1C(=O)NC2(CCCCC2)C1=O)c1ccc(Oc2ccccn2)cc1` [Example 5-18], the IC50 is under 100 nM.
As for `CCc1nc2cccnc2n1-c1ccc(C(=O)CN2C(=O)NC3(CCC(F)(F)CC3)C2=O)cc1` [Example 24-2], the half-maximal inhibitory concentration (IC50) was under 500 nM.
On to `Cc1nc(C(=O)CN2CC3(CCC(F)(F)CC3)OC2=O)c(C)n1-c1ccccc1` [Example 2-7], for which the concentration for half-maximal inhibition (IC50) is under 500 nM.
Regarding `O=C(CN1C(=O)NC2(CCC(F)(F)CC2)C1=O)c1ccc(-n2cnc3ccccc32)cc1` [Example 5-7], the half-maximal inhibitory concentration (IC50) was under 10 nM.
With `O=C(CN1C(=O)NC2(CCC(F)(F)CC2)C1=O)c1ccc(-c2ccccc2CO)cc1` [Example 13-34], the IC50 was under 10 nM.
Consider `O=C(CN1C(=O)NC2(CCC(F)(F)CC2)C1=O)c1ccc(-c2cncc(F)c2)c(Cl)c1` [Example 13-26], for which the IC50 was under 100 nM.
On to `O=C(CN1CC2(CCC(F)(F)CC2)OC1=O)c1ccc(-c2cccc3cccnc23)cc1` [Example 13-57], for which the IC50 was under 500 nM.
With `O=C(CN1C(=O)NC2(CCC(F)(F)CC2)C1=O)c1ccc(-c2ncnc3cnccc23)cc1` [Example 6-51], the IC50 is under 500 nM.
The figure for `Cc1cc(-n2c(C)cc(C(=O)CN3C(=O)OC4(CCC(F)(F)CC4)C3=O)c2C)no1` [Example 1-2] is under 100 nM; for `COc1ccccc1-c1ccc(C(=O)CN2C(=O)NC3(CCCCC3)C2=O)cc1` [Example 13-3] it is under 100 nM.
`Cc1c(N)cncc1-c1ccc(C(=O)CN2C(=O)NC3(CCC(F)(F)CC3)C2=O)cc1` [Example 6-76]: the IC50 is under 100 nM.
`Cc1ccnnc1-c1ccc(C(=O)CN2C(=O)NC3(CCCCC3)C2=O)cc1` [Example 7-23]: the IC50 was under 500 nM.
In the case of `O=C(CN1C(=O)NC2(CCC(F)(F)CC2)C1=O)c1ccc(-n2cnc3ncccc32)cc1` [Example 5-11], the IC50 was under 100 nM.
Take `Cc1cc2ccccc2n1-c1ccc(C(=O)CN2C(=O)NC3(CCC(F)(F)CC3)C2=O)cc1` [Example 19-19]: the IC50 is under 500 nM.
Consider `O=C(CN1C(=O)NC2(CCC(F)(F)CC2)C1=O)c1ccc(-n2cnc3cccnc32)cc1` [Example 5-9], for which the IC50 is under 10 nM.
The result for `Cc1ccnnc1-c1ccc(C(=O)CN2C(=O)OC3(CCC(F)(F)CC3)C2=O)cc1` [Example 7-21] reads under 100 nM.
In the case of `Cc1nc2ccc(C#N)nc2n1-c1ccc(C(=O)CN2C(=O)NC3(CCC(F)(F)CC3)C2=O)cc1` [Example 27-1, 3-(4-(2-(8,8-difluoro-2,4-dioxo-1,3-diazaspiro[4.5]decan-3-yl)acetyl)phenyl)-2-methyl-3H-imidazo[4,5-b]pyridine-5-carbonitrile], the IC50 was under 10 nM.
Take `O=C(CN1C(=O)NC2(CCC(F)(F)CC2)C1=O)c1ccc(Oc2ncccn2)cc1` [Example 5-21]: the IC50 was under 500 nM.
For the compound `N#Cc1cccc(-c2ccc(C(=O)CN3C(=O)NC4(CCC(F)(F)CC4)C3=O)cc2)n1` [Example 6-26], the IC50 was under 100 nM.
For the compound `Cc1cc(C(=O)CN2C(=O)NC3(CCC(F)(F)CC3)C2=O)n(C)c1-c1cccc(F)c1` [Example 16-5], the IC50 was under 100 nM.
On to `N#Cc1cccc(Oc2ccc(C(=O)CN3C(=O)NC4(CCC(F)(F)CC4)C3=O)cn2)c1` [Example 20-7], for which the IC50 is under 100 nM.
On to `Cc1ncccc1-c1ccc(C(=O)CN2CC3(CCC(F)(F)CC3)OC2=O)cc1` [Example 13-56], for which the IC50 is under 500 nM.
Consider `Nc1nccnc1-c1ccc(C(=O)CN2C(=O)NC3(CCC(F)(F)CC3)C2=O)cc1` [Example 6-117], for which the IC50 was under 500 nM.
As to `NC(=O)c1ccccc1-c1ccc(C(=O)CN2C(=O)NC3(CCC(F)(F)CC3)C2=O)cc1` [Example 6-99], the IC50 was under 500 nM.
`Cc1nc2c(-c3ccc(C(=O)CN4C(=O)NC5(CCC(F)(F)CC5)C4=O)cc3)cccc2[nH]1` [Example 6-65]: the IC50 is under 500 nM.
On to `Cc1nc(C(=O)CN2C(=O)NC3(CCC(F)(F)CC3)C2=O)sc1-c1cccc2ccncc12` [Example 18-10], for which the IC50 is under 100 nM.
The figure for `O=C(CN1C(=O)NC2(CCCCC2)C1=O)c1ccc(-c2ccccc2C(F)(F)F)nc1` [Example 9-6] is under 100 nM; for `Cc1ccccc1-c1ccc(C(=O)CN2C(=O)NC3(CCC(F)(F)CC3)C2=O)nc1` [Example 10-2] it is under 100 nM.

The values are drawn from patent US10093678B2, “Azaspiro derivatives as TRPM8 antagonists” (RaQualia Pharma Inc., priority 2014, dated 2018).
